ChEMBL document CHEMBL4765436, “Discovery, structure-activity relationship study and biological evaluation of 2-thioureidothiophene-3-carboxylates as a novel class of C-X-C chemokine receptor 2 (CXCR2) antagonists” (Eur J Med Chem, 2020)

Experiments:
[1] = biological target: T1, C-X-C chemokine receptor type 2 (Homo sapiens, UniProt P25025); test: Antagonist activity at CXCR2 (unknown origin) expressed in U2OS cells cotransfected with beta-arrestin/TEV protease fusion protein and beta-lactamase assessed as inhibition of CXCL8-induced beta arrestin2 recruitment preincubated for 30 mins followed by CXCL8 stimulation and measured after 5 hrs by FRET based fluorescence/Tango assay; format: cell-based
T1 sequence (P25025 whole entry): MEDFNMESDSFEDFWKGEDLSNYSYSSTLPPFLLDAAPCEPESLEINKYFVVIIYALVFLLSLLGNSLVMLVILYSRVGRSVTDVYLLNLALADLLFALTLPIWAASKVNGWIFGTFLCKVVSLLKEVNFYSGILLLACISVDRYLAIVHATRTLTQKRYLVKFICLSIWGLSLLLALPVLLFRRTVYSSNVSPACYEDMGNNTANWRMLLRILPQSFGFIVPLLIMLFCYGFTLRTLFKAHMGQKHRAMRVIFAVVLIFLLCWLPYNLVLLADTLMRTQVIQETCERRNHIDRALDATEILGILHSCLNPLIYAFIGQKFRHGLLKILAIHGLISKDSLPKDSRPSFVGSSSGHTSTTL

[2] = biological target: C-X-C chemokine receptor type 4 (Homo sapiens, UniProt P61073); test: Antagonist activity at CXCR4 (unknown origin) expressed in U2OS cells cotransfected with beta-arrestin/TEV protease fusion protein and beta-lactamase assessed as inhibition of SDF1-alpha-induced beta arrestin2 recruitment preincubated for 30 mins followed by SDF1-alpha stimulation and measured after 5 hrs by FRET based fluorescence/Tango assay
C-X-C chemokine receptor type 4, sequence (P61073 whole entry, the tested form may be a part): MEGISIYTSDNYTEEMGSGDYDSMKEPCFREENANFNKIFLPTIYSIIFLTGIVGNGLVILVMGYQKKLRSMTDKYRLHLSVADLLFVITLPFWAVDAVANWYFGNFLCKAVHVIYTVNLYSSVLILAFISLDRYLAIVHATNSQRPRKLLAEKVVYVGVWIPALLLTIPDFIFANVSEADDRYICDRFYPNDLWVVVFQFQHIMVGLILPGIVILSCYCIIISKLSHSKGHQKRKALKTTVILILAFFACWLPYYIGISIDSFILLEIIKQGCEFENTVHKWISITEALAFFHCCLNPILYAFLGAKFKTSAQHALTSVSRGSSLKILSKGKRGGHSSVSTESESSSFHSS

SMILES	IC50 [1] [µM]	IC50 [2] [µM]
CCOC(=O)c1c(NC(=S)Nc2ccc(C(F)(F)F)cc2)sc2c1C(C)CCC2 (stereo unspecified)	2	14.6
CCOC(=O)c1c(NC(=S)Nc2ccc(C(C)(C)C)cc2)sc2c1C(C)CCC2 (stereo unspecified)	7	> 10
CC1CCCc2sc(NC(=S)Nc3ccc4c(c3)OC(F)(F)O4)c(C(=O)OC(C)(C)C)c21 (stereo unspecified)	> 10	> 10
CCOC(=O)c1c(NC(=S)Nc2ccccc2)sc2c1C(C)CCC2 (stereo unspecified)	6.4	> 10
O=C(Nc1ccccc1)c1c(NC(=S)Nc2ccc(F)cc2)sc2c1CCOC2	> 10	> 10
CCOC(=O)c1c(NC(=S)NCc2ccccc2)sc2c1C(C)CCC2 (stereo unspecified)	6.7	> 20
CC1CCCc2sc(NC(=S)Nc3ccccc3)c(C(=O)Nc3ccccc3)c21 (stereo unspecified)	2.7	> 10
CC(C)(C)OC(=O)c1c(NC(=S)Nc2ccccc2)sc2c1CCNC2	8.7	> 10
CCOC(=O)c1c(NC(=S)NC(=O)c2ccccc2)sc2c1C(C)CCC2 (stereo unspecified)	> 10	> 10
CCOC(=O)c1c(NC(=S)Nc2ccccc2F)sc2c1C(C)CCC2 (stereo unspecified)	7.5	12
CC(C)(C)OC(=O)c1c(NC(=S)Nc2ccc(OC(F)(F)F)cc2)sc2c1CCOC2	1.6	> 30
CCOC(=O)c1c(NC(=S)Nc2ccc(O)cc2)sc2c1C(C)CCC2 (stereo unspecified)	> 30	11.7
COc1ccc(NC(=S)Nc2sc3c(c2C(=O)OC(C)(C)C)C(C)CCC3)cc1OC (stereo unspecified)	5.7	> 10
CCOC(=O)c1c(NC(=S)Nc2ccc3c(c2)OC(F)(F)O3)sc2c1C(C)CCC2 (stereo unspecified)	1.9	26.7
CC(C)(C)OC(=O)c1c(NC(=S)Nc2ccccc2)sc2c1CCN(Cc1ccccc1)C2	> 10	> 10
CC1CCCc2sc(NC(=S)Nc3ccc(OC(F)(F)F)cc3)c(C(=O)OC(C)(C)C)c21 (stereo unspecified)	10.6	> 10
CC1CCCc2sc(NC(=S)Nc3ccccc3)c(C(=O)O)c21 (stereo unspecified)	6.7	> 10
CC(C)(C)OC(=O)c1c(NC(=S)Nc2ccccc2)sc2c1COC(C)(C)C2	> 10	> 10
COc1ccc(NC(=S)Nc2sc3c(c2C(=O)OC(C)(C)C)CCOC3)cc1OC	3.4	> 10
CC1CCCc2sc(NC(=S)Nc3ccc(OC(C)(C)C)cc3)c(C(=O)OC(C)(C)C)c21 (stereo unspecified)	6.8	> 10
CCOC(=O)NC(=S)Nc1sc2c(c1C(=O)OCC)C(C)CCC2 (stereo unspecified)	8.7	> 10
CC1CCCc2sc(NC(=S)Nc3ccccc3)c(C(N)=O)c21 (stereo unspecified)	> 30	> 10

SMILES	IC50 [1] [µM]	IC50 [2] [µM]
CCOC(=O)c1c(NC(=S)Nc2cnccn2)sc2c1C(C)CCC2 (stereo unspecified)	> 10	> 10
CCOC(=O)c1c(NC(=S)Nc2cccc(OC)c2)sc2c1C(C)CCC2 (stereo unspecified)	3	8.9
CC(C)OC(=O)c1c(NC(=S)Nc2ccccc2)sc2c1C(C)CCC2 (stereo unspecified)	2.7	9.3
CC1CCCc2sc(NC(=S)Nc3ccc(N4CCN(C)CC4)cc3)c(C(=O)OC(C)(C)C)c21 (stereo unspecified)	> 10	> 10
CC(C)(C)OC(=O)c1c(NC(=S)Nc2ccccc2)sc2c1CCOC2	2.3	> 30
CCOC(=O)c1c(NC(=S)Nc2ccc(F)cc2)sc2c1C(C)CCC2 (stereo unspecified)	2.1	11.7
CCOC(=O)c1c(NC(=S)Nc2ccccc2O)sc2c1C(C)CCC2 (stereo unspecified)	> 30	> 10
CC(C)(C)OC(=O)c1c(NC(=S)Nc2ccccc2)sc2c1CCCC2	1.8	> 10
CCOC(=O)c1c(NC(=S)Nc2ccc(OC)c(OC)c2)sc2c1C(C)CCC2 (stereo unspecified)	7.7	> 10
CCOC(=O)c1c(NC(=S)Nc2ccc(OC)cc2)sc2c1C(C)CCC2 (stereo unspecified)	4.4	11.5
C[C@H](NC(=S)Nc1sc2c(c1C(=O)OC(C)(C)C)CCOC2)c1ccccc1	2.4	> 30
CCOC(=O)c1c(NC(=S)Nc2ccc(N(C)C)cc2)sc2c1C(C)CCC2 (stereo unspecified)	3.9	> 10
CC1CCCc2sc(NC(=S)Nc3ccccc3)c(C(=O)NCc3ccccc3)c21 (stereo unspecified)	2.5	> 30
CN1CCc2c(sc(NC(=S)Nc3ccccc3)c2C(=O)OC(C)(C)C)C1	> 10	> 10
COc1cccc(NC(=S)Nc2sc3c(c2C(=O)OC(C)(C)C)C(C)CCC3)c1 (stereo unspecified)	2.7	> 10
CC(C)(C)OC(=O)c1c(NC(=S)Nc2ccccc2)sc2c1CCCO2	4.1	> 10
CCOC(=O)c1c(NC(=S)Nc2ccc(N)cc2)sc2c1C(C)CCC2 (stereo unspecified)	> 30	> 10
CNC(=O)c1c(NC(=S)Nc2ccccc2)sc2c1C(C)CCC2 (stereo unspecified)	> 10	> 10
CC1CCCc2sc(NC(=S)Nc3ccccc3)c(C(=O)OC(C)(C)C)c21 (stereo unspecified)	2.5	11.9
CCOC(=O)c1c(NC(=S)Nc2ccc(OC(F)(F)F)cc2)sc2c1C(C)CCC2 (stereo unspecified)	2.2	12.7
CC1CCCc2sc(NC(=S)Nc3ccc(Oc4ccccc4)cc3)c(C(=O)OC(C)(C)C)c21 (stereo unspecified)	> 10	> 10
